From ChEMBL document CHEMBL1156286, “Inhibition of eEF2-K by thieno[2,3-b]pyridine analogues” (Bioorg Med Chem Lett, 2010)

What was measured:
[1] = tested on: HCT-116; experiment: Cytotoxicity against human HCT116 cells after 72 hrs; assay type: functional, cell-based; details: HCT-116, 72 h
[2] = tested on: A549; experiment: Cytotoxicity against human A549 cells after 72 hrs; assay type: functional, cell-based; details: A549, 72 h
[3] = biological target: T1, Eukaryotic elongation factor 2 kinase (Homo sapiens, UniProt O00418); experiment: Inhibition of GST tagged eEf2K expressed in Escherichia coli by fluorometric method
T1 sequence (O00418 whole entry): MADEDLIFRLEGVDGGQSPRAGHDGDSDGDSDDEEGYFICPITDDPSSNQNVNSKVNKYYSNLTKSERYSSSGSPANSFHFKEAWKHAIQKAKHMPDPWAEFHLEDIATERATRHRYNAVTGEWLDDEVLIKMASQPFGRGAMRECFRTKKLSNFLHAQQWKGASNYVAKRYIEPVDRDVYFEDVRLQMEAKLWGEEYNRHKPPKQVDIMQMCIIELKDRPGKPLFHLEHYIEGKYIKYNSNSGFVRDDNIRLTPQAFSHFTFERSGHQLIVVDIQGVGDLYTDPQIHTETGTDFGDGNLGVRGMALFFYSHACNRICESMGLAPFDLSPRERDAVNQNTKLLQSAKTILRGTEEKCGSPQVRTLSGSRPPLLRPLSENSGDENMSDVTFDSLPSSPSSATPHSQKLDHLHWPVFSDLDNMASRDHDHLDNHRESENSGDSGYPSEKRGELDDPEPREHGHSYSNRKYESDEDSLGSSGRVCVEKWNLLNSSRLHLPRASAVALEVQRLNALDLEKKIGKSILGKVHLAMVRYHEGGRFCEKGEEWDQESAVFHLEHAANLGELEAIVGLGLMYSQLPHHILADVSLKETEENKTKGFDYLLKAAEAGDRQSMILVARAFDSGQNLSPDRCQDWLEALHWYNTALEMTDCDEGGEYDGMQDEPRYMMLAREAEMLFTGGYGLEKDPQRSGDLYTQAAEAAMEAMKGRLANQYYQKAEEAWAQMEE

Row | Compound | IC50 [3] | EC50 [1] | EC50 [2]
1 | NC(=O)c1sc2nc3c(cc2c1N)CCCCCC3 | 2.5 µM | 38 µM | 38 µM
2 | CC(C)Cc1c2c(nc3sc(C(N)=O)c(N)c13)CCCCCC2 | 0.86 µM |  | 
3 | NC(=O)c1sc2nc3c(c(C4CC4)c2c1N)CCCCCC3 | 2 µM |  | 
4 | NC(=O)c1sc2nc3c(c(-c4ccc(C(F)(F)F)o4)c2c1N)CCCCCC3 | 0.3 µM |  | 
5 | NC(=O)c1sc2nc(CC3CCCCC3)cc(-c3ccco3)c2c1N | > 10 µM |  | 
6 | Nc1ncnc2c1sc1nc3c(c(-c4ccco4)c12)CCCCC3 | 4.7 µM | > 100 µM | 17 µM
7 | COc1ccc(-c2cc(-c3ccco3)c3c(N)c(C(N)=O)sc3n2)c(OC)c1 | > 10 µM |  | 
8 | NC(=O)c1sc2nc3c(c(CCc4ccccc4)c2c1N)CCCCCC3 | > 20 µM |  | 
9 | COc1ccc(F)c(-c2c3c(nc4sc(C(N)=O)c(N)c24)CCCCCC3)c1 | 1.3 µM |  | 
10 | NC(=O)c1sc2nc3c(c(-c4cc5ccccc5o4)c2c1N)CCCCCC3 | 0.33 µM |  | 
11 | Nc1ncnc2c1sc1nc(N3CCOCC3)c3c(c12)CCCC3 | 0.22 µM | 29 µM | 6.7 µM
12 | Nc1ncnc2c1sc1nc3c(cc12)CCCCCCC3 | 3.7 µM |  | 
13 | Nc1ncnc2c1sc1nc3c(c(-c4ccco4)c12)CCCCCCC3 | 0.35 µM |  | 
14 | NC(=O)c1sc2nc3c(c(/C=C/c4ccco4)c2c1N)CCCCCC3 | 0.32 µM | 19 µM | 15 µM
15 | COc1ccc(Cc2cc(-c3ccco3)c3c(N)c(C(N)=O)sc3n2)c(OC)c1 | > 10 µM |  | 
16 | NC(=O)c1sc2nc3c(c(-c4ccco4)c2c1N)CCCCCCC3 |  | 17 µM | 
17 | NC(=O)c1sc2nc3c(c(-c4ccc(Cl)c(Cl)c4)c2c1N)CCCCCC3 | 0.99 µM |  | 
18 | CC1CCCc2c1nc1sc(C(N)=O)c(N)c1c2-c1ccco1 (racemic) | > 20 µM |  | 
19 | CC(C)=CCCC(C)c1c2c(nc3sc(C(N)=O)c(N)c13)CCCCCC2 (racemic) | 10 µM |  | 

More lines, main results first:

Row | IC50 [3] | Compound | EC50 [1] | EC50 [2]
20 | 1.1 µM | NC(=O)c1sc2nc3c(c(-c4ccoc4)c2c1N)CCCCCC3 |  | 
21 | > 20 µM | COC(=O)c1oc(-c2c3c(nc4sc(C(N)=O)c(N)c24)CCCCCC3)cc1C |  | 
22 | > 20 µM | NC(=O)c1sc2nc3c(c(-c4ccccc4)c2c1N)CCCCCC3 |  | 
23 | 1.4 µM | NC(=O)c1sc2nc3c(c(-c4nccs4)c2c1N)CCCCCC3 |  | 
24 | > 20 µM | Cc1cccnc1-c1c2c(nc3sc(C(N)=O)c(N)c13)CCCCCC2 |  | 
25 | 0.66 µM | CCc1ccc(-c2c3c(nc4sc(C(N)=O)c(N)c24)CCCCCC3)o1 |  | 
26 | 0.8 µM | NC(=O)c1sc2nc3c(c(-c4ccc(CO)o4)c2c1N)CCCCCC3 |  | 
27 | 1.1 µM | Cc1cc(-c2c3c(nc4sc(C(N)=O)c(N)c24)CCCCCC3)oc1C |  | 
28 | 1.1 µM | Cc1c2c(nc3sc(C(N)=O)c(N)c13)CCCCCC2 |  | 
29 | 0.46 µM | Cc1ccsc1-c1c2c(nc3sc(C(N)=O)c(N)c13)CCCCCC2 |  | 
30 | 1.2 µM | Cc1cccc(-c2c3c(nc4sc(C(N)=O)c(N)c24)CCCCCC3)c1 |  | 
31 | 0.99 µM | Cn1cccc1-c1c2c(nc3sc(C(N)=O)c(N)c13)CCCCCC2 |  | 
32 | > 20 µM | NC(=O)c1sc2nc3c(c(-c4ccco4)c2c1N)CCCCCCCC3 |  | 
33 | 1.1 µM | NC(=O)c1sc2nc3c(c(-c4ccc(Cl)cc4)c2c1N)CCCCCC3 |  | 
34 | 1.1 µM | NC(=O)c1sc2nc3c(c(-c4ccco4)c2c1N)CCCCC3 |  | 
35 | 0.28 µM | NC(=O)c1sc2nc3c(c(-c4ccc(Cl)o4)c2c1N)CCCCCC3 | 100 µM | 64 µM
36 | 0.64 µM | NC(=O)c1sc2nc3c(c(-c4ccco4)c2c1N)CCCCCC3 |  | 
